The structures appear in SMILES notation.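 48-hour exposure; five concentrations; linearly interpolated endpoints. GI50 marks 50% less growth. The concentration for full growth arrest is given as TGI.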

One experiment deals with HT29 colon. Nature of the experiment: DTP human tumour cell line panel, 48 h.
The TGI is the concentration giving total growth inhibition. On to `CC1NOC(=O)C1N=Nc1ccc(Cl)cc1Cl` (stereo not drawn), for which the TGI was over 100 µM.
Still for that read-out and setting: next, `O=C1NC(=O)C2C(=O)NC(=O)C1C2Cc1ccco1` (stereo not drawn): over 100 µM; `CCOC(=O)/C(=C/c1ccccn1)C(=O)c1ccccc1`: 30.4 µM; `O=C(c1ccccc1)[C@H]1Nc2ccc(Cl)cc2[C@H]2CCC[C@@H]12`: 62.2 µM.
Regarding `COc1ccc2nc(NC(=O)C(=O)CC(=O)c3ccc([N+](=O)[O-])cc3)sc2c1`, the TGI was over 100 µM.
As to `CC(=O)Nc1ccc(C2CC(c3ccc([N+](=O)[O-])cc3)=Nc3ccccc3S2=O)cc1` (stereo not drawn), the TGI amounted to 59.1 µM.
For the compound `COc1cc(/C=C2\NC(=O)C(Cc3cc(OC)c(OC)c(C)c3OC)N(C(C)=O)C2=O)c(OC)c(C)c1OC` (stereo not drawn), the total growth inhibition concentration (TGI) was over 100 µM.
One may read the GI50 as the concentration that inhibits growth by half. As for `COc1cc(C(=O)/C=C/c2cccc(Nc3ccnc4cc(Cl)ccc34)c2)cc(OC)c1OC`, the GI50 was 323 nM and the TGI was 1.3 µM.
In turn, `O=NN(CCCl)C(=O)NC1CCC(CC(=O)O)CC1` (stereo not drawn) displayed a TGI of over 100 µM.
`C[C@H](C(=O)O)C(=O)NC(=O)N(Cc1ccccc1)N=O`: the TGI is over 100 µM.
Consider `NNC(=O)C(=O)NN=C(C(Cl)(Cl)CO)C(Cl)(Cl)CO`, for which the TGI was over 100 µM.
`COc1ccc(/C=C2\C(=O)N(NC(C)=O)c3ccccc32)cc1`: the TGI is over 100 µM.
As for `O=C1N[C@@H]2CCCC[C@@H]2C12CCCCC2`, the TGI was over 100 µM.
Compound `COc1ccc2ccccc2c1C1=NC(C)(C)CO1` returned a TGI of over 100 µM.
Compound `NC1=NC(Cn2nc(-c3ccccc3)c3ccccc3c2=O)=NNC(=O)N1` showed a TGI of over 100 µM.
On to `O=C(CCCC(=O)Nc1ccc(Cl)cc1Cl)CC(=O)c1ccc2ccccc2c1`, for which the TGI was over 100 µM.
On the same count and under the same terms, in the case of `O=C(NCCc1ccccc1)C1C(=O)C(=O)N(CCc2ccccc2)C1=O` (stereo not drawn) it was over 100 µM.
Same read-out and setting: next, `OC(c1ccccc1Br)(c1ccccc1Br)C(F)(F)F`: 38.3 µM.
With `CC(=O)OC1COC(N2CCc3cc([N+](=O)[O-])ccc32)C(OC(C)=O)C1OC(C)=O` (stereo not drawn), the TGI is over 100 µM.
`CCOC(=O)C1S(=O)(=O)OCCOS1(=O)=O` showed a TGI of over 100 µM.
In turn, `Cc1nc2ccccc2c(=O)n1/N=C(\N=Nc1ccccc1Cl)c1ccccc1Cl` registered a TGI of over 100 µM.
In the case of `CCc1cccc(CC)c1NC(=O)/C(Cl)=C(/Cl)C(=O)O`, the TGI amounted to 53.7 µM.
For `O=[N+]([O-])c1ccc(-c2ccc(C3=Nn4c(CNc5ccccc5Cl)nnc4SC3)o2)cc1`, the TGI is over 100 µM.
As for `CCCC(=O)CC(C)C(=O)C(=O)NC12CC3CC(CC(C3)C1)C2` (stereo not drawn), the TGI is over 100 µM.
The same measure, in the same setting: in the case of `CC(=O)OCC(=O)[C@@]1(O)CC[C@H]2[C@@H]3C[C@H](C)C4=CC(=O)C=C[C@]4(C)[C@@]3(F)[C@@H](O)C[C@@]21C` it was over 100 µM; in that of `Nc1nc(=S)c2c(ncn2CCO)[nH]1`, over 100 µM; in that of `COc1cc(/C=C/c2csnn2)cc(OC)c1OC`, over 100 µM.
For `c1ccc(C(c2ccccc2)c2ccccn2)cc1`, the TGI was over 100 µM.
For the compound `N#CC1CC(c2ccccc2)Nc2cc(Cl)ccc2N1` (stereo not drawn), the TGI is over 76.2 µM.

The next experiment deals with M14 melanoma. The experiment in a line: DTP human tumour cell line panel, 48 h.
`CCOC(=O)C1=C(NC)OCC1=O` yielded a TGI of over 100 µM.
On to `CCOC(=O)C1(C)CCC(C(C(=O)O)C(=O)O)CC1=O` (stereo not drawn), for which the TGI was over 100 µM.
Turning to `COC(=O)C1=C(C(=O)OC)C2(c3ccccc3)OC1(c1ccccc1)c1cc3ccccc3cc12`, the TGI amounted to 3.33 µM.
`CC1NOC(=O)C1N=Nc1ccc(Cl)cc1Cl` (stereo not drawn) gave a TGI of 47.4 µM.
In the case of `O=C1NC(=O)C2C(=O)NC(=O)C1C2Cc1ccco1` (stereo not drawn), the TGI is over 100 µM.
Same read-out and setting: in the case of `CCOC(=O)/C(=C/c1ccccn1)C(=O)c1ccccc1` it was 29.3 µM; in that of `O=C(c1ccccc1)[C@H]1Nc2ccc(Cl)cc2[C@H]2CCC[C@@H]12`, 29.2 µM.
For the compound `COc1ccc2nc(NC(=O)C(=O)CC(=O)c3ccc([N+](=O)[O-])cc3)sc2c1`, the TGI is over 100 µM.
`CC(=O)Nc1ccc(C2CC(c3ccc([N+](=O)[O-])cc3)=Nc3ccccc3S2=O)cc1` (stereo not drawn) yielded a TGI of over 100 µM.
The compound `COc1cc(/C=C2\NC(=O)C(Cc3cc(OC)c(OC)c(C)c3OC)N(C(C)=O)C2=O)c(OC)c(C)c1OC` (stereo not drawn) came in with a TGI of over 100 µM.
The same measure, in the same setting: next, `O=NN(CCCl)C(=O)NC1CCC(CC(=O)O)CC1` (stereo not drawn): over 100 µM; `C[C@H](C(=O)O)C(=O)NC(=O)N(Cc1ccccc1)N=O`: over 100 µM.
For the compound `NNC(=O)C(=O)NN=C(C(Cl)(Cl)CO)C(Cl)(Cl)CO`, the TGI was 94 µM.
Consider `COc1ccc(/C=C2\C(=O)N(NC(C)=O)c3ccccc32)cc1`, for which the TGI is over 100 µM.
`O=C1N[C@@H]2CCCC[C@@H]2C12CCCCC2` returned a total growth inhibition concentration (TGI) of over 100 µM.
In turn, `COc1ccc2ccccc2c1C1=NC(C)(C)CO1` came in with a TGI of over 100 µM.
Same read-out and setting: in the case of `NC1=NC(Cn2nc(-c3ccccc3)c3ccccc3c2=O)=NNC(=O)N1` it was over 100 µM; in that of `O=C(CCCC(=O)Nc1ccc(Cl)cc1Cl)CC(=O)c1ccc2ccccc2c1`, over 100 µM.
`O=C(NCCc1ccccc1)C1C(=O)C(=O)N(CCc2ccccc2)C1=O` (stereo not drawn) returned a TGI of over 100 µM.
The same measure, in the same setting: next, `OC(c1ccccc1Br)(c1ccccc1Br)C(F)(F)F`: over 100 µM; `CC(=O)OC1COC(N2CCc3cc([N+](=O)[O-])ccc32)C(OC(C)=O)C1OC(C)=O` (stereo not drawn): over 100 µM.
The compound `CCOC(=O)C1S(=O)(=O)OCCOS1(=O)=O` had a total growth inhibition concentration (TGI) of over 100 µM.
On to `CC12OC(=O)C(C#N)C1(C)C1C(=O)CCCC12` (stereo not drawn), for which the TGI is over 100 µM.
Take `Cc1nc2ccccc2c(=O)n1/N=C(\N=Nc1ccccc1Cl)c1ccccc1Cl`: the TGI is over 100 µM.
Consider `CCc1cccc(CC)c1NC(=O)/C(Cl)=C(/Cl)C(=O)O`, for which the TGI stood at 35.9 µM.
In turn, `O=[N+]([O-])c1ccc(-c2ccc(C3=Nn4c(CNc5ccccc5Cl)nnc4SC3)o2)cc1` showed a TGI of over 100 µM.
`CCCC(=O)CC(C)C(=O)C(=O)NC12CC3CC(CC(C3)C1)C2` (stereo not drawn) had a TGI of over 100 µM.
The compound `CC(=O)OCC(=O)[C@@]1(O)CC[C@H]2[C@@H]3C[C@H](C)C4=CC(=O)C=C[C@]4(C)[C@@]3(F)[C@@H](O)C[C@@]21C` yielded a TGI of over 100 µM.
In turn, `Nc1nc(=S)c2c(ncn2CCO)[nH]1` gave a TGI of over 100 µM.
Same read-out and setting: next, `COc1cc(/C=C/c2csnn2)cc(OC)c1OC`: over 100 µM; `c1ccc(C(c2ccccc2)c2ccccn2)cc1`: over 100 µM; `N#CC1CC(c2ccccc2)Nc2cc(Cl)ccc2N1` (stereo not drawn): over 100 µM.

Another experiment deals with NCI-H226 lung. The experiment in a line: DTP human tumour cell line panel, 48 h.
`CCOC(=O)C1=C(NC)OCC1=O` had a TGI of over 100 µM.

(Values after PubChem BioAssay (NCI).)
